Source: US20090312310A1 (priority 2006, published 2009)

Key:
[1] = system: human colon cancer-derived cell line DLD-1 having mutant p53; assay: Cell growth inhibition assay (MTT), DLD-1; format: cell-based; details: DLD-1 (mutant p53), 72 hours
Method: (§1) An anti-cell test was conducted using two cells (human lung cancer-derived cell line NCI-H460 having wild-type p53 and human colon cancer-derived cell line DLD-1 having mutant p53).
(§2) Cells of the respective cell lines were suspended in a medium (RPMI1640 medium containing 10% fetal bovine serum) and these suspensions were inoculated in amounts of 500 cells/150 μL/well and 1000 cells/150 μL/well, respectively, to a 96-well multiwell plate. A test compound was dissolved in DMSO and this solution was diluted with medium to prepare a sample solution (DMSO concentration: 1% or lower). On the next day of inoculation, medium containing DMSO nonsupplemented with the test compound (hereinafter, referred to as a DMSO dilution, DMSO concentration: 1% or lower) or the sample solution was added in an amount of 50 μL/well. MTT assay was conducted immediately after addition of the sample solution or the DMSO dilution to the cells and after culture of the cells (after addition of the sample solution or the DMSO dilution) at 37° C. for 72 hours in a 5% CO2 atmosphere. The MTT assay was conducted as shown below.
(§3) A 5 mg/mL MTT (3-(4,5-dimethylthiazol-2-yl)-2,5-diphenyltetrazolium bromide, Sigma-Aldrich Co., M-2128) solution was prepared using phosphate buffer solutions (Dulbecco's Phosphate-buffered Salines). This MTT solution was added in an amount of 20 μL/well. Then, the plate was cultured at 37° C. for 4 hours in a 5% CO2 atmosphere. The plate was centrifuged at 1200 rpm for 5 minutes and then the culture supernatant was removed by aspiration using a dispenser. DMSO was added in an amount of 150 μL/well to dissolve generated formazan. […] The absorbance of each well was measured under conditions of OD 540 nm and reference 660 nm using a plate reader (SpectraMax PLUS384, Molecular Devices, CA, USA).
(§4) The OD value measured immediately after addition of the sample solution was defined as S. The OD value measured 72 hours after addition of the sample solution was defined as T. The OD value measured 72 hours after addition of the DMSO dilution was defined as C. […]

Mdm2/p53 binding = target: T1, Mdm2/p53 binding (Homo sapiens, UniProt Q00987, L33E); assay: Mdm2/p53 binding assay (HTRF, His-p53 / GST-Mdm2); details: His-p53 (aa 1-132) and GST-Mdm2 (aa 25-108, L33E), 6.25 nM each; 25° C., 1 hour
T1 construct: having Mdm2 amino acids at positions 25 to 108
T1 sequence (Q00987 25-108 L33E, species assumed): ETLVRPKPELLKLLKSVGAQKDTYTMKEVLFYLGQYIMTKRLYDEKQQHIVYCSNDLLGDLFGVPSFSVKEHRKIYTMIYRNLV
Method: Next, a test compound was diluted with protein buffer solution containing 10% DMSO, and this test compound dilution was added in an amount of 4 μL/well to the plate.
These dilutions were added in an amount of 8 μL/well (total reaction solution volume: 20 μl/well). Then, the plate was left at 25° C. for 1 hour.
C (correction factor)=(A−BI)/D
The R value calculated from the well supplemented with His-p53, GST-Mdm2, the test compound, and each antibody was defined as R (sample). The R value calculated from the well supplemented with His-p53, GST-Mdm2, and each antibody but without the test compound was defined as R (control). The R value calculated from the well supplemented with GST-Mdm2, the test compound, and each antibody but without His-p53 was defined as R (background). T/C was calculated from the formula shown below. An IC50 value for Mdm2/p53 binding was calculated by sigmoid fitting using Prism (GraphPad Software).
T/C=(R (sample)−R (background))/(R (control)−R (background))

[2] = system: human lung cancer-derived cell line NCI-H460 having wild-type p53; assay: Cell growth inhibition assay (MTT), NCI-H460; format: cell-based; details: 72 hours
Method: as §1, §2, §3, §4

| GI50 [1] [nM] | IC50 (Mdm2/p53 binding) [nM] | GI50 [2] [nM] | GI50 ([1]; Homo sapiens) [nM] | GI50 ([2]; Homo sapiens) [nM] | Structure (SMILES) |
| --- | --- | --- | --- | --- | --- |
| > 50000 | 10 | 2810 |  |  | CC(C)C1=C(C(=O)N2CCC[C@H]2C(=O)N2CCOCC2)SC2=N[C@@](C)(c3ccc(Cl)nc3)[C@@H](c3ccc(Cl)cc3)N21 (single isomer, unassigned; isomer b) [Example 97 (Isomer B)] |
|  | 18 |  | > 50000 | 1750 | CC(=O)N(C)[C@@H](C)CN(C)C(=O)[C@@H]1CCCN1C(=O)C1=C(C(C)C)N2C(=N[C@@](C)(c3ccc(Cl)cc3)[C@H]2c2ccc(Cl)cc2)S1 [Example 73, N-{(2S)-2-[Acetyl(methyl)amino]propyl}-1-{[(5R,6S)-5,6-bis(4-chlorophenyl)-3-isopropyl-6-methyl-5,6-dihydroimidazo[2,1-b][1,3]thiazol-2-yl]carbonyl}-N-methyl-L-prolinamide] |
|  |  |  | 40700 | 1380 | CC(C)C1=C(C(=O)N2[C@@H](C)CC[C@H]2C(=O)N(C)C)SC2=N[C@@](C)(c3ccc(Cl)cc3)[C@@H](c3ccc(Cl)cc3)N21 [Example 112, (5S)-1-{[(5R,6S)-5,6-Bis(4-chlorophenyl)-3-isopropyl-6-methyl-5,6-dihydroimidazo[2,1-b][1,3]thiazol-2-yl]carbonyl}-N,N,5-trimethyl-L-prolinamide] |
